Measurements reported in PubChem BioAssay AID248 (DTP/NCI, 2004).
Where “and” joins values, the source holds several entries; their conditions need not be identical. Identical values can stand only once. Inconclusive results and toxic doses are left out. Cut-off read from the data, not from the text of the source: active = T/C of 150% or more; inactive = T/C below 125%.

System: L1210 leukemia ip in BDF1 mice, survival T/C
Experiment: NCI In Vivo Anticancer Drug Screen. Data for tumor model L1210 Leukemia (intraperitoneal) in B6D2F1 (BDF1) mice
Conditions: endpoint: mean survival time, higher = longer survival
In short: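 In this screen, tumor-bearing mice given compound are compared to those given vehicle, and their survival values are reported as a treated-to-control quotient.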

[1] = dose: 100.0 mg/kg/injection, schedule: Q01DX001 (ip), vehicle: Klucel (hydroxypropylcellulose) (HPC)
[2] = dose: 200.0 mg/kg/injection, schedule: Q01DX001 (ip), vehicle: Klucel (hydroxypropylcellulose) (HPC)
[3] = dose: 400.0 mg/kg/injection, schedule: Q01DX001 (ip), vehicle: Klucel (hydroxypropylcellulose) (HPC)
[4] = dose: 100.0 mg/kg/injection, schedule: Q04DX003 (ip), vehicle: saline with Tween-80
[5] = dose: 200.0 mg/kg/injection, schedule: Q04DX003 (ip), vehicle: saline with Tween-80
[6] = dose: 400.0 mg/kg/injection, schedule: Q04DX003 (ip), vehicle: saline with Tween-80
[7] = dose: 100.0 mg/kg/injection, schedule: Q04DX003 (ip), vehicle: Klucel (hydroxypropylcellulose) (HPC)
[8] = dose: 200.0 mg/kg/injection, schedule: Q04DX003 (ip), vehicle: Klucel (hydroxypropylcellulose) (HPC)
[9] = dose: 400.0 mg/kg/injection, schedule: Q04DX003 (ip), vehicle: Klucel (hydroxypropylcellulose) (HPC)
[10] = dose: 100.0 mg/kg/injection, schedule: Q01DX001 (ip), vehicle: carboxymethylcellulose (CMC)
[11] = dose: 200.0 mg/kg/injection, schedule: Q01DX001 (ip), vehicle: carboxymethylcellulose (CMC)
[12] = dose: 400.0 mg/kg/injection, schedule: Q01DX001 (ip), vehicle: carboxymethylcellulose (CMC)
[13] = dose: 100.0 mg/kg/injection, schedule: Q01DX005 (ip), vehicle: saline
[14] = dose: 100.0 mg/kg/injection, schedule: Q01DX009 (ip), vehicle: saline with Tween-80
[15] = dose: 200.0 mg/kg/injection, schedule: Q01DX009 (ip), vehicle: saline with Tween-80
[16] = dose: 400.0 mg/kg/injection, schedule: Q01DX009 (ip), vehicle: saline with Tween-80
[17] = dose: 100.0 mg/kg/injection, schedule: Q01DX001 (ip), vehicle: saline
[18] = dose: 200.0 mg/kg/injection, schedule: Q01DX001 (ip), vehicle: saline
[19] = dose: 400.0 mg/kg/injection, schedule: Q01DX001 (ip), vehicle: saline
[20] = dose: 100.0 mg/kg/injection, schedule: Q01DX009 (ip), vehicle: Klucel (hydroxypropylcellulose) (HPC)
[21] = dose: 200.0 mg/kg/injection, schedule: Q01DX009 (ip), vehicle: Klucel (hydroxypropylcellulose) (HPC)
[22] = dose: 400.0 mg/kg/injection, schedule: Q01DX009 (ip), vehicle: Klucel (hydroxypropylcellulose) (HPC)
[23] = dose: 100.0 mg/kg/injection, schedule: Q01DX009 (ip), vehicle: saline

Measured: T/C

NC(CS)=NCC12CC3CC(CC(C3)C1)C2
inactive: dose: 12.5 mg/kg/injection, schedule: Q04DX003 (ip), vehicle: carboxymethylcellulose (CMC) 93 % of control | dose: 25.0 mg/kg/injection, schedule: Q04DX003 (ip), vehicle: carboxymethylcellulose (CMC) 98 % of control

COC(=O)C(NC(=O)COc1ccccc1[N+](=O)[O-])C(=O)OC
inactive: dose: 100.0 mg/kg/injection, schedule: Q01DX001 (ip), vehicle: saline with Tween-80 100 % of control | dose: 200.0 mg/kg/injection, schedule: Q01DX001 (ip), vehicle: saline with Tween-80 95 % of control | dose: 400.0 mg/kg/injection, schedule: Q01DX001 (ip), vehicle: saline with Tween-80 97 % of control

CCCCCCCCCCCCCCCCCC/C(CC)=N/Nc1ccc([N+](=O)[O-])cc1[N+](=O)[O-]
inactive: [1] 101 % of control | [2] 103 % of control | [3] 97 % of control

CC(C)C(COC(=O)c1ccc(N)cc1)NC1CCCCC1C (stereo not drawn)
inactive: dose: 75.0 mg/kg/injection, schedule: Q01DX001 (ip), vehicle: carboxymethylcellulose (CMC) 97 % of control | dose: 150.0 mg/kg/injection, schedule: Q01DX001 (ip), vehicle: carboxymethylcellulose (CMC) 95 % of control | dose: 300.0 mg/kg/injection, schedule: Q01DX001 (ip), vehicle: carboxymethylcellulose (CMC) 89 % of control

Cc1cc(N)ccc1S(=O)(=O)F
inactive: [4] 103 % of control | [5] 103 % of control | [6] 100 % of control

N#C[CH2][Sn]([I])([c]1ccccc1)[c]1ccccc1
inactive: dose: 12.5 mg/kg/injection, schedule: Q04DX002 (ip), vehicle: saline with Tween-80 100 % of control | dose: 25.0 mg/kg/injection, schedule: Q04DX002 (ip), vehicle: saline with Tween-80 107 % of control | dose: 50.0 mg/kg/injection, schedule: Q04DX002 (ip), vehicle: saline with Tween-80 91 % of control

OCCNc1nn2ccnc2c2ccccc12
inactive: dose: 100.0 mg/kg/injection, schedule: Q04DX002 (ip), vehicle: saline with Tween-80 92 % of control | dose: 200.0 mg/kg/injection, schedule: Q04DX002 (ip), vehicle: saline with Tween-80 92 % of control | dose: 400.0 mg/kg/injection, schedule: Q04DX002 (ip), vehicle: saline with Tween-80 92 % of control

CC(=O)OCc1cc(=O)n(C)c2c3c4c(cc12)c(C)cc(=O)n4CO3
inactive: [1] 109 % of control | [7] 104 % of control | [2] 114 % of control | [8] 117 % of control | [3] 118 % of control | [9] 123 % of control

S=C(NCCNC(=S)[S][Sn]([c]1ccccc1)([c]1ccccc1)[c]1ccccc1)[S][Sn]([c]1ccccc1)([c]1ccccc1)[c]1ccccc1
inactive: dose: 4.0 mg/kg/injection, schedule: Q01DX015 (ip), vehicle: carboxymethylcellulose (CMC) 97 % of control | dose: 8.0 mg/kg/injection, schedule: Q01DX015 (ip), vehicle: carboxymethylcellulose (CMC) 97 % of control | dose: 16.0 mg/kg/injection, schedule: Q01DX015 (ip), vehicle: carboxymethylcellulose (CMC) 94 % of control | dose: 25.0 mg/kg/injection, schedule: Q01DX009 (ip), vehicle: saline with Tween-80 92 % of control | dose: 32.0 mg/kg/injection, schedule: Q01DX015 (ip), vehicle: carboxymethylcellulose (CMC) 94 % of control and 104 % of control | dose: 50.0 mg/kg/injection, schedule: Q01DX009 (ip), vehicle: saline with Tween-80 91 % of control | dose: 64.0 mg/kg/injection, schedule: Q01DX015 (ip), vehicle: carboxymethylcellulose (CMC) 112 % of control | [10] 100 % of control | [4] 96 % of control | [11] 100 % of control | [12] 102 % of control

CCCCN(C)N=Nc1cn(C2OC(CO)C(O)C2O)c(=O)n(C)c1=O (stereo not drawn)
inactive: [13] 119 % of control

CCOC(=O)CCC(NC(=O)c1ccccc1NC)C(=O)OCC (stereo not drawn)
inactive: [14] 94 % of control | [15] 92 % of control | [16] 101 % of control

O=C(CCCC(=O)NNC(=S)Nc1ccccc1)NNC(=S)Nc1ccccc1
inactive: dose: 50.0 mg/kg/injection, schedule: Q01DX001 (ip), vehicle: saline 100 % of control | [17] 100 % of control | [18] 97 % of control | [19] 100 % of control

O/N=C1\CCc2ccccc2C(O)C1c1ccccc1 (stereo not drawn)
inactive: [4] 97 % of control | [5] 102 % of control | [6] 88 % of control

O=[N+]([O-])c1ccc(N=N/C(Cc2ccccc2)=N\Nc2ccccc2)cc1
inactive: dose: 50.0 mg/kg/injection, schedule: Q01DX009 (ip), vehicle: Klucel (hydroxypropylcellulose) (HPC) 90 % of control | [20] 95 % of control | [7] 87 % of control | [21] 92 % of control | [8] 100 % of control | [22] 90 % of control | [9] 101 % of control

Cc1c(NC(=O)Nc2cccc(F)c2)c(=O)n(-c2ccccc2)n1C
inactive: [14] 101 % of control | [4] 104 % of control | [15] 98 % of control | [5] 104 % of control | [16] 98 % of control | [6] 101 % of control

CN(CCC#N)C1=CCCC1
inactive: dose: 100.0 mg/kg/injection, schedule: Q04DX003 (ip), vehicle: saline sonified 100 % of control | dose: 200.0 mg/kg/injection, schedule: Q04DX003 (ip), vehicle: saline sonified 111 % of control | dose: 400.0 mg/kg/injection, schedule: Q04DX003 (ip), vehicle: saline sonified 96 % of control

C=CCSc1nc(N)nc2c1ncn2C1CC(O)C(CO)O1 (stereo not drawn)
inactive: [13] 102 % of control | [23] 102 % of control | dose: 200.0 mg/kg/injection, schedule: Q01DX005 (ip), vehicle: saline 104 % of control | dose: 200.0 mg/kg/injection, schedule: Q01DX009 (ip), vehicle: saline 109 % of control | dose: 400.0 mg/kg/injection, schedule: Q01DX009 (ip), vehicle: saline 109 % of control

CN(C)c1ccc(C2=CC3CCCC(C2)N3C)cc1 (stereo not drawn)
inactive: dose: 12.5 mg/kg/injection, schedule: Q04DX003 (ip), vehicle: saline 100 % of control | dose: 25.0 mg/kg/injection, schedule: Q04DX003 (ip), vehicle: saline 97 % of control

O=C1c2ccccc2C(=O)C1(Br)C(Br)c1ccccc1 (stereo not drawn)
inactive: [20] 102 % of control | [7] 96 % of control | [21] 101 % of control | [8] 94 % of control | [22] 93 % of control | [9] 96 % of control

CC[N+](C)(C)c1ncnc2nc[nH]c12
inactive: dose: 50.0 mg/kg/injection, schedule: Q01DX009 (ip), vehicle: saline 103 % of control | dose: 50.0 mg/kg/injection, schedule: Q04DX003 (ip), vehicle: saline 95 % of control | [17] 106 % of control | [23] 110 % of control | dose: 100.0 mg/kg/injection, schedule: Q04DX003 (ip), vehicle: saline 100 % of control | [18] 111 % of control | dose: 200.0 mg/kg/injection, schedule: Q04DX003 (ip), vehicle: saline 96 % of control

BrC12CC3CC(C1)CC(Br)(C3)C2
inactive: dose: 50.0 mg/kg/injection, schedule: Q01DX001 (ip), vehicle: carboxymethylcellulose (CMC) 96 % of control | [10] 93 % of control | [11] 93 % of control | [12] 102 % of control

CC1(C)N=C(N)N=C(N)N1c1cc(Cl)cc(CCCCc2ccc(S(=O)(=O)F)cc2)c1
inactive: dose: 25.0 mg/kg/injection, schedule: Q04DX003 (ip), vehicle: Klucel (hydroxypropylcellulose) (HPC) 109 % of control | dose: 50.0 mg/kg/injection, schedule: Q04DX003 (ip), vehicle: Klucel (hydroxypropylcellulose) (HPC) 112 % of control | [7] 107 % of control and 118 % of control

O=c1[nH]cncc1F
inactive: dose: 264.0 mg/kg/injection, schedule: Q01DX001 (ip), vehicle: saline 92 % of control | [19] 100 % of control and 112 % of control
